Here are results for 23 molecules from US8633204B2 (Pfizer Inc., priority 2006, dated 2014).

The target of experiment [1] is PI3-Kα (Mus musculus (Mouse), UniProt P42337). Briefly: PI3-Kα Biochemical Assay (fluorescence polarization kinase assay). The protocol:
Compounds of the present invention were evaluated for potency against PI3-Kα using an in vitro kinase assay. PI3-Kα activity is measured in vitro by determining the level of phosphorylation of the substrate PI(4,5)P2. The formation of product PI(3,4,5)P3 is monitored by binding to the Grip1 PH domain in a ligand displacement fluorescence polarization (FP) assay, in which the TAMRA-labeled PI(3,4,5)P3 complexed with Grip1 PH domain is displaced by PI(3,4,5)P3 formed in the PI3-Kα reaction resulting in a decrease in FP signal. Mouse PI3-Kα P110 and P85 subunits were co-expressed in insect cells and co-purified to homogeneity. PI(4,5)P2 were obtained from Cayman. TAMRA-labeled PI(3,4,5)P3 were from Echelon, Grip1 PH domain from Dundee and other reagents were from Sigma.
All assays were performed in a Corning solid black 96-well half area plate using LJL Analyst (Molecular Devices) at room temperature. The assay buffer contained 50 mM HEPES, pH 7.4, 150 mM NaCl, 5 mM DTT, and 0.05% CHAPS. Dry powder PI(4,5)P2 was dissolved in 50 mM TRIS, pH 8 to make 1 mM stock solution. The PI(4,5)P2 stock solution was then diluted in the assay buffer to 60 μM, and sonicated for 30 sec before use. To the assay plate, the following reagents were added in sequence: 10 μL of 60 μM PI(4,5)P2, 5 μL of 4 nM PI3-Kα, 2 μL of compound in 25% DMSO, 3 μL of mixture containing 200 μM ATP and 33 mM MgCl2. The final volume for the reaction was 20 μL. The reaction mixture was incubated at room temperature for 35 min. The reaction was then stopped by 20 μL of 20 mM EDTA. […] The FP signal was allowed to develop for 40 min before reading on a LJL analyst at excitation 535 nm and emission 580 nm.
The percentage of inhibition was calculated based on the following equation % inhibition=[1−(FPcompound−FPmax)/(FPmin−FPmax)]×100, where FPcompound is the FP reading at a given compound concentration, FPmin is the FP signal of the PI3-Kα reaction in the absence of a compound, and FPmax is the background FP signal in the absence of PI3-Kα and a compound. The IC50 was determined by fitting the FP signal vs. compound concentration to a sigmoidal dose response equation using GraphPad Prism curve fitting program.
A general note: Polarisation of emitted light reports the rotation of a fluorescent probe.

Experiment [2] has as its system PI3-K in BT20 cells (phosphorylation of AKT at serine 473). Nature of the experiment: PI3-Kα Cellular Assay (AKT Ser473 phosphorylation ELISA in BT20 cells). It counts as cell-based, human. The conditions noted are these: Homo sapiens, BT-20, pAKT Ser473 ELISA, 1 hour incubation. How it is done:
Compounds of the present invention were evaluated for potency against PI3-K using a cellular assay as follows.
Healthy growing human breast cancer cells BT20 (PI3K mutated) are used for the assay. BT20 cells are grown in 10% FBS+GLN (1:100)+PS (1:100)+1 mM Sodium Pyruvate+0.1 mM Sodium Bicarbonate+Non-Essential Amino Acids Solution (1:100) MEM medium (MEM+all). […] The cells are re-suspended in 10% FBS MEM all and are centrifuged down at 1400 rpm for 5 minutes. The cells are re-suspended in 0.5% FBS MEM all and are counted on a cell counter. The cells are seeded at 25,000 cells/well in volume of 100 μL/well in 0.5% FBS MEM all in a 96 well flat-bottom plate. The negative control wells receive only 100 μL of 0.5% FBS MEM all medium without cells. The plate is incubated overnight in a cell culture incubator with 5% CO2 at 37° C.
On day 2, testing compounds are prepared in 0.5% FBS MEM all medium and serially diluted at 1:3 for 11 test concentrations. Each concentration of the compounds is tested in duplicate. The compound solutions are added at 25 μL/well to the corresponded wells in cell plate, and 25 μL/well of the vehicle (0.5% DMSO in 0.5% FBS MEM all) is added to the negative control wells (no cells) and the positive control wells (cells without compounds). The plate is incubated for 1 hour in a cell culture incubator with 5% CO2 at 37° C. After 1 hour of incubation, the medium is removed, 100 μL/well of cell lysis buffer is added into the cell plate, and shake for 15 minutes at room temperature. […] After 1 hour, empty the contents of the wells, wash the plate 4 times with the wash buffer, and add 100 μL of TMB substrate solution (catalog #T0440, Sigma) into each well, and incubate with gentle shaking at room temperature for […]. After 15 minutes of color development, add 100 μL of stop solution (1N hydrochloric acid) to each well, and read the plate at 450 nm on ELISA plate reader.
(ELISA stands for enzyme-linked immunosorbent assay.)

Broadly, the IC50 is the midpoint of a concentration-inhibition curve. Higher therefore signals weaker potency.

PI3-Kα, sequence (P42337 whole entry, the tested form may be a part): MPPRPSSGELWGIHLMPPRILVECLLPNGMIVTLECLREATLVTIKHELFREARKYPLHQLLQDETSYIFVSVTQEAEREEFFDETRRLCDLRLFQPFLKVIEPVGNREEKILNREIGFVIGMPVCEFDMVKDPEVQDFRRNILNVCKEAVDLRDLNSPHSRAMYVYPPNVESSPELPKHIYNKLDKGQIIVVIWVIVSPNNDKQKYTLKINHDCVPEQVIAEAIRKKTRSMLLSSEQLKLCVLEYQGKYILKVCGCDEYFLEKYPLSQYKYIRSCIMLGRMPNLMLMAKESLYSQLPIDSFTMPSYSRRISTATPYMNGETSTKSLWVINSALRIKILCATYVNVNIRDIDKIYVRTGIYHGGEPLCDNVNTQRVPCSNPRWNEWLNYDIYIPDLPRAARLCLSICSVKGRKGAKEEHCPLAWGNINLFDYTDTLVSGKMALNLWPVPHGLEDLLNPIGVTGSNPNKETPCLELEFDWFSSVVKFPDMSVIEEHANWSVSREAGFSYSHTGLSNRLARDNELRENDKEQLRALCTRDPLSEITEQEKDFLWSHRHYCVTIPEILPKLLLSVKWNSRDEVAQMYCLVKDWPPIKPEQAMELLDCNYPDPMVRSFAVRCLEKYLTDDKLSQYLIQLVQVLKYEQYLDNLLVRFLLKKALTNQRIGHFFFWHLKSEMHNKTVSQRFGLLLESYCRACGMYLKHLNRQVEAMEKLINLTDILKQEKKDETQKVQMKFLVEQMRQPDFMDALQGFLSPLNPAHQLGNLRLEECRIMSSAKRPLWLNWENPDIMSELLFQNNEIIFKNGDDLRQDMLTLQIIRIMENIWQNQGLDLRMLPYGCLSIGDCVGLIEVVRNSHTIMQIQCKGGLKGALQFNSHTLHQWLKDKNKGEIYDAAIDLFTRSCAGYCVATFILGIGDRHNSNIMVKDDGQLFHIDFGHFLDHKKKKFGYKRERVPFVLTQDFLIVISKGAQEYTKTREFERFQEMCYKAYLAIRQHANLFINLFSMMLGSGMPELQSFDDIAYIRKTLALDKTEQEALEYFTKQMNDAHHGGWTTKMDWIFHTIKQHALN
PI3-Kα, sequence (P26450 whole entry partner, the tested form may be a part): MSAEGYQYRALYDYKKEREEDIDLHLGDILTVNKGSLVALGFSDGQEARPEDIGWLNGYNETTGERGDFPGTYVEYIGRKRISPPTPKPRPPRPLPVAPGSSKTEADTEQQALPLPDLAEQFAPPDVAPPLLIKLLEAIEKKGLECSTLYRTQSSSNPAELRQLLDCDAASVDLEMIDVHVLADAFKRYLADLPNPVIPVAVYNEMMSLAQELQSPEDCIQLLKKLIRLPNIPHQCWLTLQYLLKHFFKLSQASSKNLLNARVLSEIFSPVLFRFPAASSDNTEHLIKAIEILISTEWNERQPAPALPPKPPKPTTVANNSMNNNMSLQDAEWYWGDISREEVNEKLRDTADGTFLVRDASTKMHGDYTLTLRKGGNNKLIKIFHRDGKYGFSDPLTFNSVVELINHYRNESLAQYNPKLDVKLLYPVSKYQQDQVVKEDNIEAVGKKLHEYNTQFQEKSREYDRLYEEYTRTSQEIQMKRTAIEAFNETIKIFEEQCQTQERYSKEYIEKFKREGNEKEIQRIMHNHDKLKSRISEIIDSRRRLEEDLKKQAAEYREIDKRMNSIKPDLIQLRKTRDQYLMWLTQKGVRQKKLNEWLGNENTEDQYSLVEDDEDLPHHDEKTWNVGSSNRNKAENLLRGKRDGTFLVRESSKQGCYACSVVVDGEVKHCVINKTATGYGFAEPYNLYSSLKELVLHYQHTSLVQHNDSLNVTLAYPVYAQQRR

With `CNc1nc(C)c2cc(-c3cnc(N)c(OC[C@H](C)N)n3)c(=O)n(C3CCCC3)c2n1` [Compound 103, 6-(5-amino-6-{[(2S)-2-aminopropyl]oxy}pyrazin-2-yl)-8-cyclopentyl-4-methyl-2-(methylamino)pyrido[2,3-d]pyrimidin-7(8H)-one], the values for the IC50 in experiment [1] and in experiment [2] were 400 nM and 2330 nM, respectively.

With `Cc1nc(N)nc2c1cc(-c1cn[nH]c1)c(=O)n2N1CCCC1` [Compound 193, 2-Amino-4-methyl-6-(1H-pyrazol-4-yl)-8-(pyrrolidin-1-yl)pyrido[2,3-d]pyrimidin-7(8H)-one], the half-maximal inhibitory concentration (IC50) in experiment [1] turned out to be 28 nM.

Regarding `COc1ccc(-c2cc3c(C)nc(N)nc3n(N3CCCC3)c2=O)cn1` [Compound 195, 2-amino-6-(6-methoxypyridin-3-yl)-4-methyl-8-(pyrrolidin-1-yl)pyrido[2,3-d]pyrimidin-7(8H)-one], inhibition in experiment [1] was half-maximal at 23 nM (IC50).

In experiment [1], `Cc1nc(N)nc2c1cc(-c1cn[nH]c1)c(=O)n2C1CC1` [Compound 211, 2-amino-8-cyclopropyl-4-methyl-6-(1H-pyrazol-4-yl)pyrido[2,3-d]pyrimidin-7(8H)-one] showed an IC50 of 78 nM.

In experiment [1], `COc1ccc(-c2cc3c(C)nc(N)nc3n(C3CC3)c2=O)cn1` [Compound 212, 2-amino-8-cyclopropyl-6-(6-methoxypyridin-3-yl)-4-methylpyrido[2,3-d]pyrimidin-7(8H)-one] showed an IC50 of 56 nM.

In turn, `COc1ncc(-c2cc3c(C)nc(N)nc3n(C3CCCC3)c2=O)cc1F` [Compound 254, 2-amino-8-cyclopentyl-6-(5-fluoro-6-methoxypyridin-3-yl)-4-methylpyrido[23-d]pyrimidin-7(8H)-one] showed an IC50 in experiment [2] of 7.92 nM.

With `Cc1nc(N)nc2c1cc(-c1ccc3c(c1)OCCO3)c(=O)n2[C@H]1CC[C@H](O)CC1` [Compound 261, 2-amino-6-(2,3-dihydro-1,4-benzodioxin-6-yl)-8-(trans-4-hydroxycylohexyl)-4-methylpyrido[23-d]pyrimidin-7(8H)-one], the 50% inhibitory concentration (IC50) in experiment [2] came out at 34.8 nM.

As for `COc1ncc(-c2cc3c(C)nc(N)nc3n(C3CCOCC3)c2=O)cc1F` [Compound 265, 2-amino-6-(5-fluoro-6-methoxypyridin-3-yl)-4-methyl-8-(tetrahydro-2H-pyran-4-yl)pyrido[2,3-d]pyrimidin-7(8H)-one], in experiment [1], it took 1.43 nM to reach half-maximal inhibition (IC50).

`COc1ncc(-c2cc3c(C)nc(N)nc3n([C@H]3CC[C@@H](O)CC3)c2=O)cn1` [Compound 272, 2-amino-8-(cis-4-hydroxycyclohexyl)-6-(2-methoxypyrimidin-5-yl)-4-methylpyrido[2,3-d]pyrimidin-7(8H)-one] came in with an IC50 in experiment [2] of 43.7 nM.

Take `COc1ncc(-c2cc3c(C)nc(N)nc3n([C@H]3CC[C@H](O)CC3)c2=O)cn1` [Compound 273, 2-amino-8-(trans-4-hydroxycyclohexyl)-6-(2-methoxypyrimidin-5-yl)-4-methylpyrido[2,3-d]pyrimidin-7(8H)-one]: the IC50 in experiment [2] was found to be 25.1 nM.

`CNc1nc(C)c2cc(-c3ccc(OC)nc3)c(=O)n([C@H]3CC[C@H](O)CC3)c2n1` [Compound 274, 8-(trans-4-hydroxycyclohexyl)-6-(6-methoxypyridin-3-yl)-4-methyl-2-(methylamino)pyrido[2,3-d]pyrimidin-7(8H)-one]: in experiment [2], inhibition was half-maximal at 7.81 nM (IC50).

Turning to `CCn1nccc1NC(=O)c1cc2c(C)nc(N)nc2n(C(C)C)c1=O` [Compound 280, 2-amino-N-(1-ethyl-1H-pyrazol-5-yl)-8-isopropyl-4-methyl-7-oxo-7,8-dihydropyrido[2,3-d]pyrimidine-6-carboxamide], in experiment [1], the concentration for half-maximal inhibition (IC50) was 3.9 nM.

Take `CNc1nc(C)c2cc(C(=O)Nc3ccccn3)c(=O)n(C3CCCC3)c2n1` [Compound 282, 8-cyclopentyl-4-methyl-2-(methylamino)-7-oxo-N-pyridin-2-yl-7,8-dihydropyrido[2,3-d]pyrimidine-6-carboxamide]: it took 265 nM to reach half-maximal inhibition in experiment [2] (IC50).

In the case of `COc1ccc(-c2cc3c(C)nc(N)nc3n([C@H]3CC[C@@H](OCCO)CC3)c2=O)cn1` [Compound 285, 2-Amino-8-(cis-4-(2-hydroxyethoxy)cyclohexyl)-6-(6-methoxypyridin-3-yl)-4-methylpyrido[2,3-d]pyrimidin-7(8H)-one], the IC50 in experiment [2] stood at 18 nM.

`COc1ccc(-c2cc3c(C)nc(N)nc3n([C@H]3CC[C@H](OCCO)CC3)c2=O)cn1` [Compound 286, 2-amino-8-[trans-4-(2-hydroxyethoxy)cyclohexyl]-6-(6-methoxypyridin-3-yl)-4-methylpyrido[2,3-d]pyrimidin-7(8H)-one] returned an IC50 in experiment [2] of 13.1 nM.

In turn, `Cc1nc(N)nc2c1cc(-c1cnc3ccccc3c1)c(=O)n2[C@H]1CC[C@H](OCCO)CC1` [Compound 289, 2-amino-8-(trans-4-(2-hydroxyethoxy)cyclohexyl]-4-methyl-6-quinolin-3-ylpyrido[2,3-d]pyrimidin-7(8H)-one] came in with an IC50 in experiment [2] of 29.5 nM.

`COc1ncc(-c2cc3c(C)nc(N)nc3n([C@H]3CC[C@@H](OCCO)CC3)c2=O)cc1F` [Compound 294, 2-amino-6-(5-fluoro-6-methoxypyridin-3-yl)-8-[cis-4-(2-hydroxyethoxy)cyclohexyl]-4-methylpyrido[2,3-d]pyrimidin-7(8H)-one] gave an IC50 in experiment [1] of 2.6 nM.

The molecule `Cc1nc(N)nc2c1cc(-c1cnc3ccccc3c1)c(=O)n2[C@H]1CC[C@@H](OCCO)CC1` [Compound 295, 2-amino-8-[cis-4-(2-hydroxyethoxy)cyclohexyl]-4-methyl-6-quinolin-3-ylpyrido[2,3-d]pyrimidin-7(8H)-one] showed an IC50 in experiment [2] of 96.2 nM.

On to `Cc1nc(N)nc2c1cc(-c1ccn[nH]1)c(=O)n2[C@H]1CC[C@H](OCCO)CC1` [Compound 301, 2-amino-8-[trans-4-(2-hydroxyethoxy)cyclohexyl]-4-methyl-6-(1H-pyrazol-3-yl)pyrido[2,3-d]pyrimidin-7(8H)-one], for which the midpoint of inhibition in experiment [2], the IC50, lay at 137 nM.

`COc1ccc(-c2cc3c(C)nc(N)nc3n([C@H]3CC[C@@H](OCC(N)=O)CC3)c2=O)cn1` [Compound 303] yielded an IC50 in experiment [2] of 20.5 nM.

In turn, `COc1ncc(-c2cc3c(C)nc(N)nc3n([C@H]3CC[C@@H](OCC(N)=O)CC3)c2=O)cn1` [Compound 307, 2-({cis-4-(2-amino-6-(2-methoxypyrimidin-5-yl)-4-methyl-7-oxopyrido[2,3-d]pyrimidin-8(7H)-yl]cyclohexyl}oxy)acetamide] showed a half-maximal inhibitory concentration (IC50) in experiment [2] of 82.9 nM.

In experiment [2], `COc1ccc(-c2cc3c(C)nc(N)nc3n([C@H]3CC[C@H](OCC(N)=O)CC3)c2=O)cn1` [Compound 309, 2-({trans-4-[2-amino-6-(6-methoxypyridin-3-yl)-4-methyl-7-oxopyrido[2,3-d]pyrimidin-8(7H)-yl]cyclohexyl}oxy)acetamide] gave a concentration for half-maximal inhibition (IC50) of 19.3 nM.

In turn, `COc1ncc(-c2cc3c(C)nc(N)nc3n([C@H]3CC[C@H](OCC(N)=O)CC3)c2=O)cn1` [Compound 311, 2-({trans-4-[2-amino-6-(2-methoxypyrimidin-5-yl)-4-methyl-7-oxopyrido[2,3-d]pyrimidin-8(7H)-yl]cyclohexyl}oxy)acetamide] yielded an IC50 in experiment [2] of 51.9 nM.
